Test results taken from Sander's compilation of Henry's law constants (doi:10.1021/je300954s).

Assay: Henry solubility constant Hcp at 298.15 K (mol/(m3 Pa))
Conditions: reference: Lee et al. (2012)

Row | SMILES | Henry solubility constant Hcp
1 | c1ccc2cc3ccccc3cc2c1 [anthracene] | 0.16
2 | c1ccc2ccccc2c1 [naphthalene] | 0.06
3 | Clc1cc(Cl)c(Cl)cc1Cl [1,2,4,5-tetrachlorobenzene] | 0.0066
4 | CC(=O)c1c(C)c([N+](=O)[O-])c(C(C)(C)C)c([N+](=O)[O-])c1C [musk ketone] | 3
5 | c1ccc2c(c1)-c1cccc3cccc-2c13 [benzo[jk]fluorene] | 0.34
6 | CCCCOC(=O)c1ccccc1C(=O)OCCCC [dibutyl phthalate] | 9.3
7 | Cc1c([N+](=O)[O-])c(C)c([N+](=O)[O-])c(C(C)(C)C)c1[N+](=O)[O-] [2,4,6-trinitro-1,3-dimethyl-5-tert-butylbenzene] | 0.32
8 | c1cc2c3c(cccc3c1)CC2 [acenaphthene] | 0.26
9 | Clc1cccc(Cl)c1Cl [1,2,3-trichlorobenzene] | 0.008
10 | CCCCOC(=O)c1ccccc1C(=O)OCc1ccccc1 [butyl benzyl phthalate] | 100
11 | c1ccc2cc3c(cc2c1)-c1cccc2cccc-3c12 [benzo[k]fluoranthene] | 10
12 | c1ccc2c(c1)ccc1ccccc12 [phenanthrene] | 0.18
13 | c1ccc2c(c1)cc1ccc3cccc4ccc2c1c34 [benzo[a]pyrene] | 6.2
14 | c1ccc2c(c1)Cc1ccccc1-2 [2,3-benzindene] | 0.32
15 | c1ccc2c(c1)ccc1c3ccccc3ccc21 [chrysene] | 2.1
